# Results: publication PMC11477209, “Toxicological Evaluation of Kaempferol and Linearolactone as Treatments for Amoebic Liver Abscess Development in Mesocricetus auratus” (International Journal of Molecular Sciences, 2024)
# Columns and labels:
# [1] = in vivo
# Description: After blood samples were obtained, the hamsters were sacrificed with a lethal dose of sodium pentobarbital, followed by a cervical fracture. They were mounted on a dissecting board for the necropsy. A complete mid-laparotomy was performed to remove the lungs, spleen, heart, liver, and kidneys. An excisional biopsy was performed to recover the ALA lesions for morphometric analysis. The organs and ALA lesions were rinsed with 1× PBS, weighed, and adherent tissue was removed. […] Later, the inclusion protocol was performed to obtain histological sections (3 μm thick) with a rotatory microtome (RM2125-RTS, Leica; Wetzlar, Germany). Tissue slices were stained with hematoxylin-eosin (Merck; Rahway, NJ, USA), mounted on coverslips with Entellan^TM-New (Merck; Rahway, NJ, USA), and observed with optical microscopy (Eclipse 80i, Nikon; Tokio, Japan).
# [2] = Paraclinical analysis (serum biochemistry, hematic biometry) in ALA hamsters; type: in vivo, Mesocricetus auratus
# Description: Serum was obtained by centrifugation at 3500 rpm and frozen at −70 °C until analysis. Hematic biometry was performed in a hematology autoanalyzer system (BC-2300, Mindray; Shenzhen, China), and biochemical parameters were made on an automatic medical system (Prestige 24i, Tokyo Boeki; Kanagawa, Japan).
# [3] = system: E. histolytica trophozoites (virulent HM-1 strain); assay: microbe, parasite or virus in culture; conditions: Entamoeba histolytica, 48 h, read-out: IC50 HM-1, 48 h, flow cytometry
# [4] = system: E. histolytica trophozoites (amoebic liver abscess); assay: Amoebic liver abscess (ALA) model, antiparasitic protocol; type: in vivo, Mesocricetus auratus
# Text: M. auratus was used as an animal model because the hamster is naturally susceptible to infection by E. histolytica and can develop amoebic colitis or extraintestinal complications such as an ALA [71]. In this context, the hamster can be used to search for new alternative therapeutic agents against amoebiasis. The hamsters were acquired from Charles River Laboratories Inc. (Wilmington, MA, USA) in 2017 by Centro de Investigación y de Estudios Avanzados del Instituto Politécnico Nacional ([…]-IPN). […] Male hamsters (sexually mature and homozygous) weighing 95 ± 5 g and ≈10 weeks old were selected for the experiments. They were maintained in aseptic conditions at 25 ± 1 °C, 50 ± 3% humidity, a 12 h photoperiod, and ad libitum access to a standard diet (LabDiet; Richmond, IN, USA) and water (Figure 5A). The hamsters were housed in polycarbonate boxes (five per box), with an American Iron and Steel Institute (AISI) lid and wood shavings as bedding, in a controlled room of the Animal Production and Experimentation Unit (UPEAL) from […]-IPN (Figure 5A). Additionally, the health state of the hamsters and their adaptation to the new laboratory conditions were evaluated for 15 days to decrease their stress and anxiety levels. This study was carried out according to the Official Mexican Regulations (NOM-062-ZOO-1999) and NC3Rs ARRIVE [60, 72]. The protocol was approved by the Institutional Animal Care and Use Committee (Reg. No. 0183-16). Finally, the hamsters were not subjected to any previous experimental procedure or any additional treatment before beginning the experimental procedures (see File S1, NC3Rs ARRIVE Guidelines Checklist). Compounds that are prohibited and/or not recommended for use in animals by the American Veterinary Medical Association (Guidelines for the Euthanasia of Animals) were not used.
# These experiments were performed with three independent biological replicates. For each replicate, twenty-five hamsters were randomly distributed (simple type) into five experimental groups (five animals per group). The sample size was determined based on the Organization for Economic Cooperation and Development (OECD) recommendations that establish the minimum number of individuals required for the tests so as not to sacrifice animals unnecessarily. Laparotomy was performed in aseptic conditions by using depilation, iodine solution, as well as sterile field cloths. Subsequently, an intra-hepatic puncture was made to deliver 1.5 × 10^6 virulent E. histolytica trophozoites in 100 μL of 1× PBS into the left hepatic lobe for ALA induction (Figure 5A-3). The injection site was immediately covered by applying a gel foam pad to maintain hemostasis. The abdominal layers were sutured discontinuously by single vertical stitches using Vicryl synthetic absorbable suture with a triangular pointed half circle needle. Irregular edges or folds in the surgical wound were eliminated to avoid tissue devitalization or possible infections. The development of a hepatic ALA was monitored for 4 days (Figure 5A-4).
# (Figure 5B). The compounds were administered by the i.p. route because the peritoneal cavity presents rapid fluid absorption into the bloodstream, and initial biotransformation by the gastrointestinal tract is avoided. […] The hamsters were evaluated 24 h post-treatment to detect any signs of discomfort/pain or toxicity. The humane endpoint criteria used in this study were >20% body weight loss overnight, cachexia, recumbence, lethargy, respiratory distress, inability to reach food and water, lack of grooming, and ulceration around the surgical site, among others. Additionally, the weight of hamsters was determined at the beginning and end of the experiment with an electronic bascule (CS200, Ohaus; Parsippany, NJ, USA), and the ALA volume was calculated based on imaging (Figure 5B-1). […]
# [5] = system: E. histolytica trophozoites (virulent HM-1 strain); conditions: 48 h
# [6] = system: E. histolytica trophozoites; conditions: 48 h; ref [10]; read-out: IC50 E. histolytica trophozoites; cited from earlier work
# [7] = system: E. histolytica trophozoites; assay: Cell morphology by confocal microscopy (actin); type: cell-based, Entamoeba histolytica; conditions: phalloidin-rhodamine, treatment with IC50
# Description: Then, the culture medium was removed, and the adhered cells were fixed with 4% paraformaldehyde for 1 h at 37 °C. The samples were washed three times with 1× PBS and incubated with 1:50 phalloidin–rhodamine (R415, Invitrogen; Carlsbad, CA, USA) for 1 h at 37 °C. Finally, the cells were washed, mounted with VectaShield/DAPI medium (Vector Laboratories; Newark, CA, USA), and observed with a confocal microscope (LSM-700, Zeiss; Oberkochen, Germany).
# BEAS-2B cells = assay: MTT cytotoxicity assay; type: cell-based, human; conditions: 24 h
# CHO-K1 cells = assay: MTT cytotoxicity assay; type: cell-based, Chinese hamster
# [8] = MTZ 0.16, KP 31.6, LL 15.6 μg/mL
smiles,measurement,setting,value
O=c1c(O)c(-c2ccc(O)cc2)oc2cc(O)cc(O)c12 [KP],Survival rate,"ALA hamsters, i.p. 4 days",100%
same,Toxicity signs,"in vivo, ip",None
same,Heart largest diameter,[1],1.06 ± 0.08 cm
same,Heart weight,[1],0.38 ± 0.1 g
same,Kidneys largest diameter,[1],1.2 ± 0.1 cm
same,Kidneys weight,[1],0.49 ± 0.04 g
same,Liver largest diameter,[1],3.88 ± 0.11 cm
same,Liver weight,[1],5.9 ± 0.8 g
same,Lungs largest diameter,[1],2.5 ± 0.05 cm
same,Lungs weight,[1],0.74 ± 0.06 g
same,Spleen largest diameter,[1],3.7 ± 0.1 cm
same,Spleen weight,[1],0.36 ± 0.05 g
same,Erythrocytes,"[2]; blood, ALA hamsters, i.p. 4 days",6.8 ± 0.3 x10 6/mm3
same,Band neutrophils,[2]; in vivo,2 ± 1%
same,Basophils,[2]; in vivo,0%
same,Eosinophils,[2]; in vivo,0%
same,Immature forms,[2]; in vivo,0%
same,Lymphocytes,[2]; in vivo,39 ± 12%
same,Monocytes,[2]; in vivo,0%
same,Segmented neutrophils,[2]; in vivo,60 ± 11%
same,ALT (GPT),"[2]; in vivo, ip",60 ± 10 U/L
same,Albumin,"[2]; in vivo, ip",1.7 ± 0.2 g/dL
same,Alkaline phosphatase,"[2]; in vivo, ip",349 ± 38 U/L
same,Cholesterol,"[2]; in vivo, ip",164 ± 43 mg/dL
same,Creatinine,"[2]; in vivo, ip",0.45 ± 0.1 mg/dL
same,Direct bilirubin,"[2]; in vivo, ip",0.37 ± 0.07 mg/dL
same,GGT,"[2]; in vivo, ip",9.3 ± 5.5 U/L
same,Glucose,"[2]; in vivo, ip",152 ± 11 mg/dL
same,Hematocrit,"[2]; in vivo, ip",48.8 ± 0.5%
same,Hemoglobin,"[2]; in vivo, ip",16.5 ± 0.2 g/dL
same,Indirect bilirubin,"[2]; in vivo, ip",0.01 ± 0.0 mg/dL
same,MCH,"[2]; in vivo, ip",24 ± 0.7 pg
same,MCHC,"[2]; in vivo, ip",33 ± 0.1 g/dL
same,MCV,"[2]; in vivo, ip",72 ± 2.3 fL
same,MPV,"[2]; in vivo, ip",7.25 ± 0.5 fL
same,PCT,"[2]; in vivo, ip",0.4 ± 0.2%
same,PDW,"[2]; in vivo, ip",9.15 ± 1.2 fL
same,Platelets,"[2]; in vivo, ip",537 ± 266 x106/μL
same,RDW-SD,"[2]; in vivo, ip",42.4 ± 0.3 fL
same,Total bilirubin,"[2]; in vivo, ip",0.38 ± 0.07 mg/dL
same,Total protein,"[2]; in vivo, ip",5.2 ± 0.2 g/dL
same,Triglycerides,"[2]; in vivo, ip",475 ± 28 mg/dL
same,Urea,"[2]; in vivo, ip",41.6 ± 4 mg/dL
same,leukocytes (mild leukocytosis),"[2]; in vivo, ip","14,800 ± 700 /mm^3"
same,IC50,[3],31.6 µg/mL
same,Edges,[4]; ALA characteristics,Irregular and poorly defined
same,Leukocyte infiltrate,[4]; ALA characteristics,+/−
same,Liquid,[4]; ALA characteristics,+/−
same,Morphology,[4]; ALA characteristics,Ovoid
same,ALA Volume,"[4]; MRI, i.p. 4 days",738 ± 150 * mm^3
same,MRI T1 signal of ALA,[4]; T1,Intermediate intensity
same,MRI T2 signal of ALA,[4]; T2,hypointense
same,ALA Weight,"[4]; i.p. 4 days, KP 5, LL 10, MTZ 10 mg/kg/day",0.86 ± 0.15 g
same,biological activity symbol on IC50 HM-1,[5],+
same,apoptotic trophozoites,[5]; [8],8.2%
same,necrotic trophozoites,[5]; [8],45.2%
same,decrease of size and granularity of the cell population,"[5]; MTZ 0.16, KP 31.6, LL 15.6 μg/mL, vs Vh",55%
same,IC50,[6],27.7 µM
same,actin cytoskeleton alteration,[7],disorganized actin microfilaments
same,biological activity symbol on IC50 BEAS-2B,BEAS-2B cells,+/-
same,IC50,"BEAS-2B cells; Homo sapiens, BEAS-2B",100 µg/mL
same,biological activity symbol on IC50 CHO-K1,"CHO-K1 cells; 24 h, MTT",+/-
same,IC50,"CHO-K1 cells; Cricetulus griseus, CHO-K1, 24 h, read-out: IC50 CHO-K1",70 µg/mL
